Source: ChEMBL document CHEMBL3352489, “6-Hydroxyquinolinium salts differing in the length of alkyl side-chain: synthesis and antimicrobial activity” (Bioorg Med Chem Lett, 2014)

Experiments:
[1] = Retention time of the compound by isocratic elution based HPLC method; type: physicochemical
Staphylococcus aureus [2] = experiment: microbe, parasite or virus in culture; type: functional; settings: CCM 4516/08, 24 h
Description: Antibacterial activity against Staphylococcus aureus CCM 4516/08 after 24 hrs by microdilution broth method

Staphylococcus aureus [3] = experiment: microbe, parasite or virus in culture; type: functional; settings: CCM 4516/08, 48 h
Description: Antibacterial activity against Staphylococcus aureus CCM 4516/08 after 48 hrs by microdilution broth method

Staphylococcus aureus [4] = experiment: Bactericidal activity against Staphylococcus aureus CCM 4516/08 after 48 hrs by microdilution broth method; type: functional; settings: CCM 4516/08, 48 h, read-out: MBC>99.9
Staphylococcus aureus [5] = experiment: microbe, parasite or virus in culture; type: functional; settings: H 5996/08, 24 h
Description: Antibacterial activity against Staphylococcus aureus H 5996/08 after 24 hrs by microdilution broth method

Staphylococcus aureus [6] = experiment: microbe, parasite or virus in culture; type: functional; settings: H 5996/08, 48 h
Description: Antibacterial activity against Staphylococcus aureus H 5996/08 after 48 hrs by microdilution broth method

Staphylococcus aureus [7] = experiment: Bactericidal activity against Staphylococcus aureus H 5996/08 after 48 hrs by microdilution broth method; type: functional; settings: H 5996/08, 48 h, read-out: MBC>99.9
[8] = test system: Staphylococcus epidermidis; experiment: microbe, parasite or virus in culture; type: functional; settings: H 6966/08, 24 h
Description: Antibacterial activity against Staphylococcus epidermidis H 6966/08 after 24 hrs by microdilution broth method

[9] = test system: Staphylococcus epidermidis; experiment: microbe, parasite or virus in culture; type: functional; settings: H 6966/08, 48 h
Description: Antibacterial activity against Staphylococcus epidermidis H 6966/08 after 48 hrs by microdilution broth method

[10] = test system: Staphylococcus epidermidis; experiment: Bactericidal activity against Staphylococcus epidermidis H 6966/08 after 48 hrs by microdilution broth method; type: functional; settings: H 6966/08, 48 h, read-out: MBC>99.9
Enterococcus sp. [11] = experiment: microbe, parasite or virus in culture; type: functional; settings: J 14365/08, 24 h
Description: Antibacterial activity against Enterococcus sp. J 14365/08 after 24 hrs by microdilution broth method

Enterococcus sp. [12] = experiment: microbe, parasite or virus in culture; type: functional; settings: J 14365/08, 48 h
Description: Antibacterial activity against Enterococcus sp. J 14365/08 after 48 hrs by microdilution broth method

Enterococcus sp. [13] = experiment: Bactericidal activity against Enterococcus sp. J 14365/08 after 48 hrs by microdilution broth method; type: functional; settings: J 14365/08, 48 h, read-out: MBC>99.9
Escherichia coli [14] = experiment: microbe, parasite or virus in culture; type: functional; settings: CCM 4517, 24 h
Description: Antibacterial activity against Escherichia coli CCM 4517 after 24 hrs by microdilution broth method

Escherichia coli [15] = experiment: microbe, parasite or virus in culture; type: functional; settings: CCM 4517, 48 h
Description: Antibacterial activity against Escherichia coli CCM 4517 after 48 hrs by microdilution broth method

Escherichia coli [16] = experiment: Bactericidal activity against Escherichia coli CCM 4517 after 48 hrs by microdilution broth method; type: functional; settings: CCM 4517, 48 h, read-out: MBC>99.9
Klebsiella pneumoniae [17] = experiment: microbe, parasite or virus in culture; type: functional; settings: D 11750/08, 24 h
Description: Antibacterial activity against Klebsiella pneumoniae D 11750/08 after 24 hrs by microdilution broth method

Klebsiella pneumoniae [18] = experiment: microbe, parasite or virus in culture; type: functional; settings: D 11750/08, 48 h
Description: Antibacterial activity against Klebsiella pneumoniae D 11750/08 after 48 hrs by microdilution broth method

Klebsiella pneumoniae [19] = experiment: Bactericidal activity against Klebsiella pneumoniae D 11750/08 after 24 hrs by microdilution broth method; type: functional; settings: D 11750/08, 24 h, read-out: MBC>99.9
Klebsiella pneumoniae [20] = experiment: microbe, parasite or virus in culture; type: functional; settings: J 14368/08, 24 h
Description: Antibacterial activity against Klebsiella pneumoniae J 14368/08 after 24 hrs by microdilution broth method

Klebsiella pneumoniae [21] = experiment: microbe, parasite or virus in culture; type: functional; settings: J 14368/08, 48 h
Description: Antibacterial activity against Klebsiella pneumoniae J 14368/08 after 48 hrs by microdilution broth method

Klebsiella pneumoniae [22] = experiment: Bactericidal activity against Klebsiella pneumoniae J 14368/08 after 48 hrs by microdilution broth method; type: functional; settings: J 14368/08, 48 h, read-out: MBC>99.9
Pseudomonas aeruginosa [23] = experiment: microbe, parasite or virus in culture; type: functional; settings: CCM 1961, 72 h
Description: Antibacterial activity against Pseudomonas aeruginosa CCM 1961 after 72 hrs by microdilution broth method

Pseudomonas aeruginosa [24] = experiment: microbe, parasite or virus in culture; type: functional; settings: CCM 1961, 120 h
Description: Antibacterial activity against Pseudomonas aeruginosa CCM 1961 after 120 hrs by microdilution broth method

Pseudomonas aeruginosa [25] = experiment: Bactericidal activity against Pseudomonas aeruginosa CCM 1961 after 120 hrs by microdilution broth method; type: functional; settings: CCM 1961, 120 h, read-out: MBC>99.9
Candida albicans [26] = experiment: microbe, parasite or virus in culture; type: functional; settings: ATCC 44859, 24 h
Description: Antifungal activity against Candida albicans ATCC 44859 after 24 hrs by modified standard CSLI M27-A2 method

Candida albicans [27] = experiment: microbe, parasite or virus in culture; type: functional; settings: ATCC 44859, 48 h
Description: Antifungal activity against Candida albicans ATCC 44859 after 48 hrs by modified standard CSLI M27-A2 method

Candida albicans [28] = experiment: Fungicidal activity against Candida albicans ATCC 44859 after 48 hrs by modified standard CSLI M27-A2 method; type: functional; settings: ATCC 44859, 48 h
Candida tropicalis [29] = experiment: microbe, parasite or virus in culture; type: functional; settings: Candida tropicalis, 156, 24 h
Description: Antifungal activity against Candida tropicalis 156 after 24 hrs by modified standard CSLI M27-A2 method

Candida tropicalis [30] = experiment: microbe, parasite or virus in culture; type: functional; settings: Candida tropicalis, 156, 48 h
Description: Antifungal activity against Candida tropicalis 156 after 48 hrs by modified standard CSLI M27-A2 method

Candida tropicalis [31] = experiment: Fungicidal activity against Candida tropicalis 156 after 48 hrs by modified standard CSLI M27-A2 method; type: functional; settings: Candida tropicalis, 156, 48 h
Pichia kudriavzevii [32] = experiment: Antifungal activity against Candida krusei E28 after 24 hrs by modified standard CSLI M27-A2 method; type: functional; settings: E28, 24 h
Pichia kudriavzevii [33] = experiment: Antifungal activity against Candida krusei E28 after 48 hrs by modified standard CSLI M27-A2 method; type: functional; settings: E28, 48 h
Pichia kudriavzevii [34] = experiment: Fungicidal activity against Candida krusei E28 after 48 hrs by modified standard CSLI M27-A2 method; type: functional; settings: E28, 48 h
Nakaseomyces glabratus [35] = experiment: Antifungal activity against Candida glabrata 20/I after 24 hrs by modified standard CSLI M27-A2 method; type: functional
Nakaseomyces glabratus [36] = experiment: Antifungal activity against Candida glabrata 20/I after 48 hrs by modified standard CSLI M27-A2 method; type: functional
Nakaseomyces glabratus [37] = experiment: Fungicidal activity against Candida glabrata 20/I after 48 hrs by modified standard CSLI M27-A2 method; type: functional
Trichosporon asahii [38] = experiment: microbe, parasite or virus in culture; type: functional; settings: Trichosporon asahii, 1188, 24 h
Description: Antifungal activity against Trichosporon asahii 1188 after 24 hrs by modified standard CSLI M27-A2 method

Trichosporon asahii [39] = experiment: microbe, parasite or virus in culture; type: functional; settings: Trichosporon asahii, 1188, 48 h
Description: Antifungal activity against Trichosporon asahii 1188 after 48 hrs by modified standard CSLI M27-A2 method

Trichosporon asahii [40] = experiment: Fungicidal activity against Trichosporon asahii 1188 after 48 hrs by modified standard CSLI M27-A2 method; type: functional; settings: Trichosporon asahii, 1188, 48 h
Aspergillus fumigatus [41] = experiment: microbe, parasite or virus in culture; type: functional; settings: Aspergillus fumigatus, 231, 24 h
Description: Antifungal activity against Aspergillus fumigatus 231 after 24 hrs by modified standard CSLI M27-A2 method

Aspergillus fumigatus [42] = experiment: microbe, parasite or virus in culture; type: functional; settings: Aspergillus fumigatus, 231, 48 h
Description: Antifungal activity against Aspergillus fumigatus 231 after 48 hrs by modified standard CSLI M27-A2 method

Aspergillus fumigatus [43] = experiment: Fungicidal activity against Aspergillus fumigatus 231 after 48 hrs by modified standard CSLI M27-A2 method; type: functional; settings: Aspergillus fumigatus, 231, 48 h
Lichtheimia corymbifera [44] = experiment: microbe, parasite or virus in culture; type: functional; settings: Lichtheimia corymbifera, 272, 24 h
Description: Antifungal activity against Absidia corymbifera 272 after 24 hrs by modified standard CSLI M27-A2 method

Lichtheimia corymbifera [45] = experiment: microbe, parasite or virus in culture; type: functional; settings: Lichtheimia corymbifera, 272, 48 h
Description: Antifungal activity against Absidia corymbifera 272 after 48 hrs by modified standard CSLI M27-A2 method

Lichtheimia corymbifera [46] = experiment: Fungicidal activity against Absidia corymbifera 272 after 48 hrs by modified standard CSLI M27-A2 method; type: functional; settings: Lichtheimia corymbifera, 272, 48 h
[47] = test system: Trichophyton mentagrophytes; experiment: microbe, parasite or virus in culture; type: functional; settings: Trichophyton mentagrophytes, 445, 72 h
Description: Antifungal activity against Trichophyton mentagrophytes 445 after 72 hrs by modified standard CSLI M27-A2 method

[48] = test system: Trichophyton mentagrophytes; experiment: microbe, parasite or virus in culture; type: functional; settings: Trichophyton mentagrophytes, 445, 120 h
Description: Antifungal activity against Trichophyton mentagrophytes 445 after 120 hrs by modified standard CSLI M27-A2 method

[49] = test system: Trichophyton mentagrophytes; experiment: Fungicidal activity against Trichophyton mentagrophytes 445 after 120 hrs by modified standard CSLI M27-A2 method; type: functional; settings: Trichophyton mentagrophytes, 445, 120 h
[50] = Cytotoxicity against CHOK1 cells after 24 hrs by MTT assay; type: ADME, cell-based; settings: Cricetulus griseus, CHO-K1, 24 h
[51] = Retention time of the compound by gradient elution based HPLC method; type: physicochemical

CCCCCCCCCCCCCCCC[n+]1cccc2cc(O)ccc21.[Br-]
250 µM: MFC (Aspergillus fumigatus [43])
20 µM: IC50 [50]
0.49 µM: MIC95 [8] | MIC95 [9]
62.5 µM: MFC (Candida albicans [28]) | MFC (Candida tropicalis [31]) | MFC (Trichosporon asahii [40])
10.77 min: Retention_time [51]
> 500 µM: MIC95 (Klebsiella pneumoniae [17]) | MIC95 (Klebsiella pneumoniae [18]) | MBC (Klebsiella pneumoniae [19]) | MIC95 (Klebsiella pneumoniae [20]) | MIC95 (Klebsiella pneumoniae [21]) | MBC (Klebsiella pneumoniae [22]) | MIC95 (Pseudomonas aeruginosa [23]) | MIC95 (Pseudomonas aeruginosa [24]) | MBC (Pseudomonas aeruginosa [25])
125 µM: MFC (Pichia kudriavzevii [34]) | MFC (Nakaseomyces glabratus [37])
0.98 µM: MIC95 (Staphylococcus aureus [2]) | MIC95 (Staphylococcus aureus [3])
3.3 min: Retention_time [1]
15.6 µM: MIC (Aspergillus fumigatus [41]) | MIC (Aspergillus fumigatus [42])
7.81 µM: MBC (Staphylococcus aureus [4]) | MBC (Enterococcus sp. [13]) | MIC (Candida albicans [26]) | MIC (Candida albicans [27]) | MIC (Candida tropicalis [29]) | MIC (Candida tropicalis [30]) | MIC (Trichosporon asahii [38]) | MIC (Trichosporon asahii [39]) | MIC (Lichtheimia corymbifera [44]) | MIC (Lichtheimia corymbifera [45])
500 µM: MIC95 (Escherichia coli [14]) | MIC95 (Escherichia coli [15]) | MBC (Escherichia coli [16]) | MFC (Lichtheimia corymbifera [46])
3.91 µM: MIC95 (Staphylococcus aureus [5]) | MIC95 (Staphylococcus aureus [6]) | MBC (Staphylococcus aureus [7]) | MBC [10] | MIC95 (Enterococcus sp. [11]) | MIC95 (Enterococcus sp. [12]) | MIC (Pichia kudriavzevii [32]) | MIC (Pichia kudriavzevii [33]) | MIC (Nakaseomyces glabratus [35]) | MIC (Nakaseomyces glabratus [36]) | MIC [47] | MIC [48] | MFC [49]

CCCCCCCCCCCC[n+]1cccc2cc(O)ccc21.[Br-]
0.49 µM: MIC95 (Staphylococcus aureus [2]) | MIC95 (Staphylococcus aureus [5]) | MIC95 [8] | MIC95 [9] | MBC [10] | MIC [47]
9.34 min: Retention_time [51]
50 µM: IC50 [50]
1.95 µM: MIC95 (Staphylococcus aureus [3]) | MIC95 (Staphylococcus aureus [6]) | MIC95 (Enterococcus sp. [12]) | MBC (Enterococcus sp. [13]) | MIC95 (Escherichia coli [14]) | MIC95 (Escherichia coli [15]) | MBC (Escherichia coli [16]) | MIC95 (Klebsiella pneumoniae [17]) | MIC95 (Klebsiella pneumoniae [18]) | MBC (Klebsiella pneumoniae [19]) | MIC (Candida albicans [27]) | MFC (Candida albicans [28]) | MFC (Candida tropicalis [31]) | MFC (Pichia kudriavzevii [34]) | MIC (Nakaseomyces glabratus [36]) | MFC (Nakaseomyces glabratus [37]) | MIC (Trichosporon asahii [39]) | MFC (Trichosporon asahii [40]) | MIC (Aspergillus fumigatus [41])
0.98 µM: MIC95 (Enterococcus sp. [11]) | MIC (Candida albicans [26]) | MIC (Candida tropicalis [29]) | MIC (Candida tropicalis [30]) | MIC (Pichia kudriavzevii [32]) | MIC (Pichia kudriavzevii [33]) | MIC (Nakaseomyces glabratus [35]) | MIC (Trichosporon asahii [38]) | MIC [48] | MFC [49]
15.6 µM: MIC (Lichtheimia corymbifera [45]) | MFC (Lichtheimia corymbifera [46])
3.91 µM: MIC95 (Klebsiella pneumoniae [20]) | MIC95 (Klebsiella pneumoniae [21]) | MBC (Klebsiella pneumoniae [22]) | MIC (Lichtheimia corymbifera [44])
0.95 min: Retention_time [1]
7.81 µM: MBC (Staphylococcus aureus [4]) | MBC (Staphylococcus aureus [7]) | MIC95 (Pseudomonas aeruginosa [23]) | MIC95 (Pseudomonas aeruginosa [24]) | MBC (Pseudomonas aeruginosa [25]) | MIC (Aspergillus fumigatus [42]) | MFC (Aspergillus fumigatus [43])
